Here are results for two molecules from patent US12702715B2, “Targeted RNA degradation allows precision repurposing of protein-targeted small molecule medicines to RNA” (University of Florida Research Foundation, Incorporated, priority 2020, dated 2026).

pKd: −log10 of the molar value.

The subject of data set [1] is base pair mutant RNA (control RNA). The data set is described as follows: Fluorescent binding affinity measurement, base pair mutant (control RNA). The note with it: up to 40 μM of the mutant RNA. On the procedure: (§1) Fluorescent Binding Affinity Measurements. Binding assays were completed as previously described^5. Briefly, the RNA of interest was folded as described in the “Solution-based Dye Displacement Assay” section, including the addition of BSA. Then, 1 was added to the RNA solution to a final concentration of 0.5 μM. The solution was serial diluted with 1× AB2 containing 0.5 μM of 1. The solutions were incubated at room temperature in the dark for 30 min. The solutions were then transferred to a black 384-well plate. Fluorescence intensity was measured using a Tecan plate reader (Gain: 100, Integration time: 40 μs) with excitation wavelength of and emission wavelength of 355 nm and 535 nm, respectively. The change in fluorescence was normalized to samples lacking RNA. Binding affinity was calculated by using Equation 2, as previously described^5. I=I0+0.5Δε{([FL]0+[RNA]0+Kd)−(([FL]0+[RNA]0+Kd)^2−4[FL]0[RNA]0)^0.5} (2) where I and I0 are the measured fluorescence intensity of compound with or without RNA, respectively, Δε is the difference between the fluorescence intensity with infinite concentration of RNA or without RNA, [FL]0 and [RNA]0 are the concentrations of small molecule and RNA, respectively, and Kd is the dissociation constant.

The test system of another data set is pre-miR-21. The data set is described as follows: In vitro Dicer processing of pre-miR-21. The data set is classed as biochemical, human. On the procedure: In vitro Dicer Processing. The pre-miR-21 WT RNA or pre-miR-21 base pair mutant were 5′-end labeled with T4 polynucleotide kinase and [γ-^32P] ATP as described previously^7. The RNA was folded in 1× Reaction Buffer (Genlantis) by heating at 55° C. for 5 min and cooling slowly to room temperature on the benchtop. The mixture was then supplemented with 2.5 mM MgCl2 and 1 mM ATP. The Dicer processing reaction was performed as described previously^6. The cleavage products were resolved on a 15% polyacrylamide denaturing gel and imaged using a Molecular Dynamics Typhoon phosphorimager and quantified with QuantityOne software from Bio-Rad.

The target in data set [2] is pre-miR-21's A-bulge (Dicer processing site in pre-miR-21). The data set is described as follows: Fluorescent binding affinity measurement, A-bulge RNA. Also on record: species or system human. On the procedure:
as §1

Data set [3] concerns 3×2 RNA internal loop library (3×2 ILL). The data set is described as follows: AbsorbArray 2DCS selection with Inforna fitness analysis. Format: binding, human. On the procedure:
Construction of AbsorbArray Small Molecule Microarrays. Microarrays were constructed as previously reported^4. Briefly, a 1% agarose solution was poured onto a glass slide and dried on the benchtop. A 200 nL aliquot of 68 hit compounds (10 mM in DMSO) was pinned onto the array from a 384-well plate using Biomek NXP Laboratory Automation Workstation. Slides were then dried overnight to obtain a thin, invisible agarose layer. Slides were washed three times with 1×PBST^5 and then three times with nanopure water. Slides were dried completely in the air before RNA selection, completed by Two-Dimensional Combinatorial Screening (2DCS).
RNA Selection and Screening by 2DCS. The 3×2 RNA ILL was 5′-end ^32P-labeled as previously described^7 and 2DCS selections were completed as previously described 4. All oligonucleotides were folded as described in the “Solution-based Dye Displacement Assay” section. Small molecule microarrays were pre-equilibrated by 3 mL 1× AB2 for 5 min. After removing the pre-equilibration buffer, 5′-end labeled folded 3×2 RNA ILL (~50,000 cpm) was added in 3 mL 1× AB2 containing 1 mM MgCl2 in the presence of competitor oligonucleotides (100 μM each). The oligonucleotide solution was evenly distributed across the microarray surface with a custom-cut piece of Parafilnm. After incubating for 30 min at room temperature, the Parafilm was removed, and the slide was washed gently by submersion in 1× AB2 for 30 s. This washing step was repeated three additional times, and the array was dried on the benchtop for 1 h. […] To harvest and collect the bound RNAs from the ILL, 1 μL of nanopure water was added to each spot. After 30 s, the water drop was absorbed into agarose gel, hydrating it such that it could be excised with a toothpick. The RNAs were eluted from the agarose by simple incubation with water, and then treated with RNase-free DNase I. A unique barcode for each small molecule was installed by reverse transcription (RT). Barcoded RNAs were amplified by PCR, purified, and identified by next-generation sequencing (NGS) using an Ion Proton deep sequencer using PI chips (60-80 million reads) as previously described^2.

Data set [4] in a line: Quantitation of 1 and 2 in mouse plasma and tissue. Format: in vivo. The settings on record: male, C57BL/6, mouse, lung, ip, 56 mg/kg; intraperitoneal injection; read-out: drug exposure in the lung. On the procedure:
Quantitation of 1 and 2 in mouse plasma and tissue. Male C57BL/6 mice (n=3 per dose; 5-7 weeks) were intraperitoneally (i.p.) injected with 1 (24, 49 or 81 mg/kg) or 2 (17, 34 or 56 mg/kg) in a formulation of DMSO/Tween-80/H2O (10/10/80). After 48 h, mice were euthanized, and blood, lung and kidney were collected. Tissues were immediately frozen. Blood was centrifuged to generate plasma and immediately frozen. On the day of analysis, tissues were homogenized, mixed with 5-times volume of acetonitrile, and filtered. Drug levels were determined by mass spectrometry using an ABSciex 5500 mass spectrometer using multiple reaction monitoring.

In the case of `CN1CCN(c2ccc3nc(-c4c(N)c5c(F)cccc5[nH]c4=O)[nH]c3c2)CC1` [Compound 1, Dovitinib, reference compound], the “binding to control RNA / base pair mutant” value in data set [1] is listed as “No saturable binding”. Further, the “in vitro processing of pre-miR-21” value in the data set with pre-miR-21 is “inhibited”. Besides, in data set [2], the pKd was 5.52. The “number of binding RNA motifs” value in data set [3] (Zobs>8) is recorded as 256. In data set [3] (normalized to most significant motif = 100), the “Fitness score of A bulge (5'GAC/3'C_G) in the Dicer processing site of pre-miR-21” value is listed as 85.
In the case of `CCOC(=O)C1=C(Nc2ccccc2)S/C(=C\c2ccc(OCCOCCOCCOCCNC(=O)NCCN3CCN(c4ccc5[nH]c(-c6c(N)c7c(F)cccc7[nH]c6=O)nc5c4)CC3)c(O)c2)C1=O` [Compound 2, Ribotac-Dovitinib], the concentration at 48 h in data set [4] turned out to be 1000 nM.

Broadly, the pKd is −log10 of the Kd, conventionally taken in molar units. The low end stands for a high Kd, the high end for a low Kd.
